# Reference: US9371294B2, “Cycloalkenyl aryl derivatives for CETP inhibitor” (CHONG KUN DANG PHARMACEUTICAL CORP., priority 2011, dated 2016)
# Molecular target: T1, cholesteryl ester transfer protein (Homo sapiens, UniProt P11597)
# T1 construct: As a source of cholesteryl ester transfer protein, plasma from healthy humans was used; from tissue; host or cells: plasma from healthy humans
# T1 sequence (P11597 18-493): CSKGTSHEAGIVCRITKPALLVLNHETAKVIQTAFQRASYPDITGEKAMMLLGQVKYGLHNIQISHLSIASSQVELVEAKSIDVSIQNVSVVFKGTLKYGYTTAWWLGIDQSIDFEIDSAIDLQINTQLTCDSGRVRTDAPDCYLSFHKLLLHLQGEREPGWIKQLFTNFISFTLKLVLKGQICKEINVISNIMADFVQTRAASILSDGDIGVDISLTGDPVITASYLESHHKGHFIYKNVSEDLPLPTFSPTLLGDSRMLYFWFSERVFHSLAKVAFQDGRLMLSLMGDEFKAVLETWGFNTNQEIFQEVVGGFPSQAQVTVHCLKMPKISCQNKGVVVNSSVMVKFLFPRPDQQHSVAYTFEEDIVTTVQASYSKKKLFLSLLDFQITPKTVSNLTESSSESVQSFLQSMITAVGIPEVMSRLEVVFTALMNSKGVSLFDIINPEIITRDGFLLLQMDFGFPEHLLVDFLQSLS
# Experiment: In vitro test for the ability to inhibit cholesteryl ester transfer
# Type: biochemical
# Conditions: [3H]-cholesteryl oleate transfer from rHDL-agarose to LDL; human plasma as CETP source; 37° C.; 16-10000 nM, duplicate
# From the text: In Vitro Test for the Ability to Inhibit Cholesteryl Ester Transfer
# 1. Preparation of Cholesteryl Ester Donor
# In order to prepare a cholesteryl ester donor to be used in the test, a radiolabeled recombinant HDL containing [^3H]-cholesteryl oleate (GE healthcare, TRK886, 3.5 μCi/mg of apoA-1) and apoA-1 was synthesized. Then, rHDL-agarose obtained by immobilizing the recombinant HDL with CNBr-activated Sepharose 4B resin (Amersham Biosciences, Sweden) was used in the test.
# 2. Cholesteryl Ester Transfer Test
# As a source of cholesteryl ester transfer protein, plasma from healthy humans was used, and as cholesteryl ester receptor, LDL from healthy humans was used. Each of test compounds was added to be final concentrations of 16, 80, 400, 2000 and 10000 nM and tested in duplicate. In order to test cholesteryl ester transfer, 20 μl of plasma, 50 μl of LDL (0.25 mg/ml) and 50 μl of rHDL-agarose (0.25 mg/ml) were mixed with each other, and a solution of each test compound was added thereto and reacted thereto at 37° C. Then, the reaction solution was centrifuged at 4° C. for 3 minutes, thereby the reaction was stopped. 150 μl of the supernatant was transferred into a 96-well plate for radioactivity measurement, and the radioactivity thereof was measured with a beta-ray detector.
# 3. Statistical Processing
# The ratio of [^3H]-cholesteryl oleate transferred from HDL to LDL was determined, and based on the determined ratio, the IC50 value of each compound was determined using GraphPad Prism 5.0.
row,Compound,IC50
1,"COc1ccc(C(C)C)cc1C1=C(CN2C(=S)O[C@H](c3cc(C(F)(F)F)cc(C(F)(F)F)c3)[C@@H]2C)CC(C)(C)CC1 [Compound 15, (4S,5R)-5-(3,5-bis(trifluoromethyl)phenyl)-3-((2-(5-isopropyl-2-methoxyphenyl)-5,5-dimethylcyclohex-1-enyl)methyl)-4-methyloxazolidine-2-thione]",600 nM
2,"COc1cc(F)c(C(C)C)cc1C1=C(CN2C(=S)O[C@H](c3cc(C(F)(F)F)cc(C(F)(F)F)c3)[C@@H]2C)CC(C)(C)CC1 [Compound 17, (4S,5R)-5-(3,5-bis(trifluoromethyl)phenyl)-3-((2-(4-fluoro-5-isopropyl-2-methoxyphenyl)-5,5-dimethylcyclohex-1-enyl)methyl)-4-methyloxazolidine-2-thione]",510 nM
3,"COc1ccccc1C1=C(CN2C(=O)O[C@H](c3cc(C(F)(F)F)cc(C(F)(F)F)c3)[C@@H]2C)CC(C)(C)CC1 [Compound 18, (4S,5R)-5-(3,5-bis(trifluoromethyl)phenyl)-3-((2-(2-methoxyphenyl)-5,5-dimethylcyclohex-1-enyl)methyl)-4-methyloxazolidin-2-one]",1360 nM
4,"COc1cc(F)c(C(C)C)cc1C1=C(CN2C(=S)O[C@H](c3cc(C(F)(F)F)cc(C(F)(F)F)c3)[C@@H]2C)CC(C)CC1 (stereo partly drawn) [Compound 26, (4S,5R)-5-(3,5-bis(trifluoromethyl)phenyl)-3-((2-(4-fluoro-5-isopropyl-2-methoxyphenyl)-5-methylcyclohex-1-enyl)methyl)-4-methyloxazolidine-2-thione]",920 nM
5,"COc1cc(F)c(C(C)C)cc1C1=C(CN2C(=O)O[C@H](c3cc(C(F)(F)F)cc(C(F)(F)F)c3)[C@@H]2C)CCCC1 [Compound 27, (4S,5R)-5-(3,5-bis(trifluoromethyl)phenyl)-3-((2-(4-fluoro-5-isopropyl-2-methoxyphenyl)cyclohex-1-enyl)methyl)-4-methyloxazolidin-2-one]",240 nM
6,"COc1cc(F)c(C(C)C)cc1C1=C(CN2C(=S)O[C@H](c3cc(C(F)(F)F)cc(C(F)(F)F)c3)[C@@H]2C)CCCC1 [Compound 28, (4S,5R)-5-(3,5-bis(trifluoromethyl)phenyl)-3-((2-(4-fluoro-5-isopropyl-2-methoxyphenyl)cyclohex-1-enyl)methyl)-4-methyloxazolidine-2-thione]",390 nM
7,"COc1ccc(C(C)C)cc1C1=C(CN2C(=O)O[C@H](c3cc(C(F)(F)F)cc(C(F)(F)F)c3)[C@@H]2C)CCC(C)(C)C1 [Compound 44, (4S,5R)-5-(3,5-bis(trifluoromethyl)phenyl)-3-((2-(5-isopropyl-2-methoxyphenyl)-4,4-dimethylcyclohex-1-enyl)methyl)-4-methyloxazolidin-2-one]",430 nM
8,"COc1ccc(C=O)cc1C1=C(CN2C(=O)O[C@H](c3cc(C(F)(F)F)cc(C(F)(F)F)c3)[C@@H]2C)CCCC1 [Compound 79, 3-(2-(((4S,5R)-5-(3,5-bis(trifluoromethyl)phenyl)-4-methyl-2-oxooxazolidin-3-yl)methyl)cyclohex-1-enyl)-4-methoxybenzaldehyde]",890 nM
9,"COc1ccc(C(C)O)cc1C1=C(CN2C(=O)O[C@H](c3cc(C(F)(F)F)cc(C(F)(F)F)c3)[C@@H]2C)CCCC1 (stereo partly drawn) [Compound 80, (4S,5R)-5-(3,5-bis(trifluoromethyl)phenyl)-3-((2-(5-(1-hydroxyethyl)-2-methoxyphenyl)cyclohex-1-enyl)methyl)-4-methyloxazolidin-2-one]",100 nM
10,"COc1ccc(C(C)(C)O)cc1C1=C(CN2C(=O)O[C@H](c3cc(C(F)(F)F)cc(C(F)(F)F)c3)[C@@H]2C)CCCC1 [Compound 82, (4S,5R)-5-(3,5-bis(trifluoromethyl)phenyl)-3-((2-(5-(2-hydroxypropan-2-yl)-2-methoxyphenyl)cyclohex-1-enyl)methyl)-4-methyloxazolidin-2-one]",80 nM
11,"COc1ccc(N(C)C(=O)C(C)C)cc1C1=C(CN2C(=O)O[C@H](c3cc(C(F)(F)F)cc(C(F)(F)F)c3)[C@@H]2C)CCCC1 [Compound 86, N-(3-(2-(((4S,5R)-5-(3,5-bis(trifluoromethyl)phenyl)-4-methyl-2-oxooxazolidin-3-yl)methyl)cyclohex-1-enyl)-4-methoxyphenyl)-N-methylisobutyramide]",110 nM
12,"COc1cc(F)c(C(C)C)cc1C1=C(CN2C(=O)O[C@H](c3cc(C(F)(F)F)cc(C(F)(F)F)c3)[C@@H]2C)CC(C(C)(C)C)CC1 (stereo partly drawn) [Compound 101, (4S,5R)-5-(3,5-bis(trifluoromethyl)phenyl)-3-((5-tert-butyl-2-(4-fluoro-5-isopropyl-2-methoxyphenyl)cyclohex-1-enyl)methyl)-4-methyloxazolidin-2-one]",70 nM
13,"COc1ccc(C(C)O)cc1C1=C(CN2C(=O)O[C@H](c3cc(C(F)(F)F)cc(C(F)(F)F)c3)[C@@H]2C)CC(C)(C)CC1 (stereo partly drawn) [Compound 103, (4S,5R)-5-(3,5-bis(trifluoromethyl)phenyl)-3-((2-(5-(1-hydroxyethyl)-2-methoxyphenyl)-5,5-dimethylcyclohex-1-enyl)methyl)-4-methyloxazolidin-2-one]",30 nM
14,"COc1ccc(C(C)(C)O)cc1C1=C(CN2C(=O)O[C@H](c3cc(C(F)(F)F)cc(C(F)(F)F)c3)[C@@H]2C)CC(C)(C)CC1 [Compound 104, (4S,5R)-5-(3,5-bis(trifluoromethyl)phenyl)-3-((2-(5-(2-hydroxypropan-2-yl)-2-methoxyphenyl)-5,5-dimethylcyclohex-1-enyl)methyl)-4-methyloxazolidin-2-one]",180 nM
15,"COc1ccc(C(C)C)cc1C1=C(CN2C(=O)O[C@H](c3cc(C(F)(F)F)cc(C(F)(F)F)c3)[C@@H]2C)CC(C)(C)CC1 [Compound 107, (4S,5R)-5-(3,5-bis(trifluoromethyl)phenyl)-3-((2-(5-isopropyl-2-methoxyphenyl)-5,5-dimethylcyclohex-1-enyl)methyl)-4-methyloxazolidin-2-one]",4 nM
16,"COc1cc(F)c(C(C)C)cc1C1=C(CN2C(=O)O[C@H](c3cc(C(F)(F)F)cc(C(F)(F)F)c3)[C@@H]2C)CCC(C)(C)C1 [Compound 109, (4S,5R)-5-(3,5-bis(trifluoromethyl)phenyl)-3-((2-(4-fluoro-5-isopropyl-2-methoxyphenyl)-4,4-dimethylcyclohex-1-enyl)methyl)-4-methyloxazolidin-2-one]",20 nM
17,"COc1ccc(NC(C)=O)cc1C1=C(CN2C(=O)O[C@H](c3cc(C(F)(F)F)cc(C(F)(F)F)c3)[C@@H]2C)CC(C)(C)CC1 [Compound 110, N-(3-(2-(((4S,5R)-5-(3,5-bis(trifluoromethyl)phenyl)-4-methyl-2-oxooxazolidin-3-yl)methyl)-4,4-dimethylcyclohex-1-enyl)-4-methoxyphenyl)acetamide]",230 nM
18,"COc1ccc(OC(F)(F)F)cc1C1=C(CN2C(=O)O[C@H](c3cc(C(F)(F)F)cc(C(F)(F)F)c3)[C@@H]2C)CC(C)(C)CC1 [Compound 117, (4S,5R)-5-(3,5-bis(trifluoromethyl)phenyl)-3-((2-(2-methoxy-5-(trifluoromethoxy)phenyl)-5,5-dimethylcyclohex-1-enyl)methyl)-4-methyloxazolidin-2-one]",80 nM
